Results on 57 compounds are retold here after patent publication US8431596B2 (Cancer Research Technology Limited, priority 2007, dated 2013).

A word on the pIC50: it is the negative decadic logarithm of the IC50, by convention in mol/L.

The experiment has as its target T1, AXL (human catalytic domain) (Homo sapiens, UniProt P30530).
T1 construct: purchased Upstate Ltd. 14-512
T1 sequence (P30530 473-894): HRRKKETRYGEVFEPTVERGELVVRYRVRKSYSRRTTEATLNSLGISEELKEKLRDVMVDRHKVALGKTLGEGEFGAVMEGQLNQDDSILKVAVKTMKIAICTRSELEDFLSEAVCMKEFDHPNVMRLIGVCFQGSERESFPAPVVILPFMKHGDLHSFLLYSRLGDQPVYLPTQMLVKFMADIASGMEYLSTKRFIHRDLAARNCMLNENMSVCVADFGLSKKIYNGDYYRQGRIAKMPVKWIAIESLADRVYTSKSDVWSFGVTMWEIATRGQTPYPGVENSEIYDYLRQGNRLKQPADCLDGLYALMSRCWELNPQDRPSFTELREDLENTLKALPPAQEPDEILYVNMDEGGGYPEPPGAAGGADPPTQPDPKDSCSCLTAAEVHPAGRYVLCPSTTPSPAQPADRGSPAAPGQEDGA
The experiment is described as follows: AXL (human catalytic domain) Enzyme Activity Assay (IMAP fluorescence polarisation). Type of experiment: biochemical. In short, it runs like this:
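Recombinant human AXL isoform 1 (aa473-894; final 15 nM) phosphorylated 100 nM fluorescein-CSK-tide with 150 μM ATP (KM) in HEPES pH 7.0/MgCl2/DTT buffer for 60 min at room temperature. IMAP fluorescence polarisation read after overnight binding; IC50 from 10-point 4-parameter logistic fits.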
A general note: In fluorescence polarisation assays a small probe gives low polarisation when free and higher when bound to something large.

[1] abbreviates: first data set, recombinant AXL isoform 1 aa473-894, 150 μM ATP.
[2] abbreviates: further data set (WW-001 through WW-169, XX-001 through XX-469, YY-001 through YY-016, ZZ-001 through ZZ-003), 150 μM ATP.

pIC50: −log10 of the molar value. Several values for one entry are separate records, joined by “and”; a condition that tells them apart may be missing. Equal entries are not always repeated.

Turning to `COc1ccc(-c2cccc3nc(Nc4ccc(S(N)(=O)=O)cc4)nn23)cc1` [XX-063], the pIC50 is 5.00 to 6.00 under setting [1] and 5.00 to 6.00 under setting [2]. With `COc1ccc(-c2cccc3nc(Nc4ccc(OCCNCCN(C)C)cc4)nn23)cc1` [XX-027], the pIC50 was above 6.00 under setting [1] and 6.00 to 7.00 under setting [2].

On to `CNCCOc1ccc(Nc2nc3cccc(-c4ccc(OC)cc4)n3n2)cc1` [XX-022], for which the pIC50 is above 6.00 under setting [1] and 6.00 to 7.00 under setting [2]. Under setting [2], `CS(=O)(=O)c1cccc(-c2cccc3nc(Nc4ccc(OCCN5CCCC5)cc4)nn23)c1` [XX-283] showed a pIC50 of 6.00 to 7.00.

Take `c1ccc(-c2cc(CNc3cccc(-c4cccc5nc(Nc6ccc(OCCN7CCCC7)cc6)nn45)c3)no2)cc1` [XX-445]: the negative-log IC50 (pIC50) under setting [2] is 6.00 to 7.00. Under setting [2], `Fc1cc(Nc2nc3cccc(-c4ccc5c(c4)OCCO5)n3n2)ccc1OCCN1CCCC1` [XX-133] had a pIC50 of at least 7.00. Take `COc1ccc(-c2cccc3nc(Nc4ccc(OCCN(C)CCO)cc4)nn23)cc1` [XX-065]: the pIC50 was above 6.00 under setting [1] and at least 7.00 under setting [2]. As for `O=C(Nc1nc2cccc(-c3ccoc3)n2n1)C1CC1` [WW-056, Cyclopropanecarboxylic acid (5-furan-3-yl [1,2,4]triazolo[1,5-a]pyridin-2-yl)-amide], the pIC50 reads like this: under setting [1], 5.00 to 6.00; under setting [2], 5.00 to 6.00. Under setting [2], `OCCn1cc(-c2cccc3nc(Nc4ccc(OCCN5CCCC5)cc4)nn23)cn1` [XX-307, 2-(4-{2-[4-(2-Pyrrolidin-1-yl-ethoxy)-phenylamino]-[1,2,4]triazolo[1,5-a]pyridin-5-yl}-pyrazol-1-yl)-ethanol] had a pIC50 of 6.00 to 7.00. Under setting [2], `c1cc(-c2cnn(CCN3CCOCC3)c2)n2nc(Nc3ccc(OCCN4CCCC4)cc3)nc2c1` [XX-272] had a pIC50 of 5.00 to 6.00. In turn, `COCc1ccc(-c2cccc3nc(Nc4ccc(OCCN5CCCC5)cc4)nn23)cc1` [XX-217] had a pIC50 under setting [2] of 6.00 to 7.00. Same read-out and setting: the value for `CNCCOc1ccc(Nc2nc3cccc(-c4ccc5c(c4)OCCO5)n3n2)cc1C` [XX-103] was 6.00 to 7.00. Regarding `CCCn1cc(-c2cccc3nc(NC(=O)C4CC4)nn23)cn1` [WW-124, Cyclopropanecarboxylic acid [5-(1-propyl-1H-pyrazol-4-yl)-[1,2,4]triazolo[1,5-a]pyridin-2-yl]-amide], the negative logarithm of the IC50 (pIC50) is, setting by setting: under setting [1], 5.00 to 6.00; under setting [2], 5.00 to 6.00. For the compound `O=C(Nc1nc2cccc(-c3cccc(F)c3)n2n1)C1CC1` [WW-007, Cyclopropanecarboxylic acid [5-(3-fIuoro-phenyl)-[1,2,4]triazolo[1,5-a]pyridin-2-yl]-amide], the negative logarithm of the IC50 (pIC50) reads like this: under setting [1], 5.00 to 6.00; under setting [2], 5.00 to 6.00.

Under setting [2], `O=C(Nc1ccc(-c2cccc3nc(Nc4ccc(OCCN5CCCC5)cc4)nn23)cc1)c1ccncc1` [XX-249] showed a negative-log IC50 (pIC50) of 6.00 to 7.00. In the case of `Clc1cccc(-c2cccc3nc(Nc4ccc(OCCN5CCCC5)cc4)nn23)c1` [XX-210], the negative-log IC50 (pIC50) under setting [2] is 6.00 to 7.00. Same read-out and setting: the value for `c1ccc2oc(-c3cccc4nc(Nc5ccc(OCCN6CCCC6)cc5)nn34)cc2c1` [XX-293] was 6.00 to 7.00; that for `c1cc(-c2cn[nH]c2)n2nc(Nc3ccc(OCCN4CCCC4)cc3)nc2c1` [XX-202, [5-(1H-Pyrazol-4-yl)-[1,2,4]triazolo[1,5-a]pyridin-2-yl]-[4-(2-pyrrolidin-1-yl-ethoxy)-phenyl]-amine] was 6.00 to 7.00; that for `c1cc(-c2ccc(-c3ccoc3)cc2)n2nc(Nc3ccc(OCCN4CCCC4)cc3)nc2c1` [XX-185] was 6.00 to 7.00. The compound `Cc1cccc(S(=O)(=O)n2cc(-c3cccc4nc(Nc5ccc(OCCN6CCCC6)cc5)nn34)cn2)c1` [XX-377] showed a pIC50 under setting [2] of 6.00 to 7.00.

On to `O=C(Nc1nc2cccc(-c3ccc(N4CCNCC4)cc3)n2n1)C1CC1` [WW-151, Cyclopropanecarboxylic acid [5-(4-piperazin-1-yl-phenyl)-[1,2,4]triazolo[1,5-a]pyridin-2-yl]-amide], for which the pIC50 under setting [1] was 5.00 to 6.00 and the pIC50 under setting [2] was 5.00 to 6.00. Regarding `COc1ccc(-c2cccc3nc(Nc4ccc(C(=O)NCCN5CCCC5)o4)nn23)cc1` [XX-408], under setting [2], the negative logarithm of the IC50 (pIC50) was 6.00 to 7.00. The same measure, in the same setting: the value for `CC(=O)Nc1ccc(-c2cccc3nc(Nc4ccc(OCCN5CCCC5)cc4)nn23)cc1` [XX-205] was 6.00 to 7.00. As to `COc1cc(Nc2nc3cccc(-c4ccc5c(c4)OCCO5)n3n2)ccc1OCCN1CCCC1` [XX-001], the pIC50 is, setting by setting: under setting [1], above 6.00; under setting [2], at least 7.00. On the same counts, the results for `COc1ccc(-c2cccc3nc(NC(=O)C4CCCC4)nn23)cc1` [WW-046] are 5.00 to 6.00 and 5.00 to 6.00. `CN(C(=O)CN1CCCC1)c1ccc(Nc2nc3cccc(-c4ccc5c(c4)OCCO5)n3n2)cc1` [XX-153]: under setting [2], the pIC50 is at least 7.00.

`O=C(Nc1cccc(-c2cccc3nc(Nc4ccc(OCCN5CCCC5)cc4)nn23)c1)c1ccc2nonc2c1` [XX-182] had a pIC50 under setting [2] of 6.00 to 7.00. Still for that read-out and setting: next, `O=C(Nc1cccc(-c2cccc3nc(Nc4ccc(OCCN5CCCC5)cc4)nn23)c1)c1cccc(Cl)c1` [XX-177]: 6.00 to 7.00. Turning to `CN(C)CCNC(=O)c1cccc(Nc2nc3cccc(-c4ccc5c(c4)OCCO5)n3n2)c1` [XX-080], the pIC50 was above 6.00 under setting [1] and at least 7.00 under setting [2]. `c1ccc(CCNc2ccc(-c3cccc4nc(Nc5ccc(OCCN6CCCC6)cc5)nn34)cc2)cc1` [XX-265] showed a pIC50 under setting [2] of 5.00 to 6.00.

Turning to `Nc1cccc(-c2cccc3nc(NC(=O)C4CC4)nn23)c1` [WW-054], the negative logarithm of the IC50 (pIC50) is above 6.00 under setting [1] and 6.00 to 7.00 under setting [2]. `O=S(=O)(Cc1cccc(Cl)c1)n1cc(-c2cccc3nc(Nc4ccc(OCCN5CCCC5)cc4)nn23)cn1` [XX-288]: the pIC50 under setting [2] was 6.00 to 7.00. Turning to `CC(=O)Nc1ccc(-c2cccc3nc(NC(=O)C4CC4)nn23)cc1` [WW-068], the negative-log IC50 (pIC50) reads like this: under setting [1], 5.00 to 6.00; under setting [2], 5.00 to 6.00. As to `COc1ccc(-c2cccc3nc(Nc4ccc5c(c4)OCCN5C)nn23)cc1` [XX-013], the pIC50 was above 6.00 under setting [1] and 6.00 to 7.00 under setting [2]. `c1cc(-c2ccc3[nH]ccc3c2)n2nc(Nc3ccc(OCCN4CCCC4)cc3)nc2c1` [XX-281] gave a pIC50 under setting [2] of 5.00 to 6.00. Consider `COc1ccc(-c2cccc3nc(Nc4ccc(OCCNCc5ccncc5)cc4)nn23)cc1` [XX-032], for which the pIC50 under setting [1] was above 6.00 and the pIC50 under setting [2] is at least 7.00. For the compound `CCN(CC)CC(=O)Nc1ccc(Nc2nc3cccc(-c4ccc5c(c4)OCCO5)n3n2)cc1` [XX-119], under setting [2], the negative-log IC50 (pIC50) was 6.00 to 7.00.

On to `COc1ccc(-c2cccc3nc(Nc4ccc(OCCNCc5ccccc5)cc4)nn23)cc1`, for which the pIC50 under setting [1] is > 6.00 and 6.94; the pIC50 under setting [2] is 5.00 to 6.00. `COc1ccc(-c2cccc3nc(Nc4ccc(N)cc4)nn23)cc1` [XX-007]: the pIC50 under setting [1] is above 6.00 and the pIC50 under setting [2] is at least 7.00. For `CC[C@@H](COc1ccc(Nc2nc3cccc(-c4ccc(OC)cc4)n3n2)cc1)N1CCCC1` [XX-388], under setting [2], the pIC50 was at least 7.00. Still for that read-out and setting: next, `O=C(Nc1ccc(Cl)cc1)c1cccc(-c2cccc3nc(Nc4ccc(OCCN5CCCC5)cc4)nn23)c1` [XX-321]: 5.00 to 6.00. In the case of `CN(C)CCNC(=O)c1cccc(Nc2nc3cccc(-c4ccc5c(c4)OCO5)n3n2)c1` [XX-002], the pIC50 reads like this: under setting [1], above 6.00; under setting [2], 6.00 to 7.00.

The compound `CN1CCOc2cc(-c3cccc4nc(Nc5ccc(OCCN6CCCC6)cc5)nn34)ccc21` [XX-093] showed a negative logarithm of the IC50 (pIC50) under setting [2] of 6.00 to 7.00. Compound `c1ccc(Cn2cc(-c3cccc4nc(Nc5ccc(OCCCN6CCCCC6)cc5)nn34)cn2)cc1` [XX-423] had a negative logarithm of the IC50 (pIC50) under setting [2] of 6.00 to 7.00. For `CCOc1ccc(-c2cccc3nc(NC(=O)C4CC4)nn23)cc1F` [WW-101], the pIC50 by setting is: under setting [1], 5.00 to 6.00; under setting [2], 5.00 to 6.00. Regarding `CCOc1ccc(-c2cccc3nc(NC(=O)C4CC4)nn23)cc1` [WW-035], the negative-log IC50 (pIC50) was above 6.00 under setting [1] and 6.00 to 7.00 under setting [2]. `COc1ccccc1NC(=O)Nc1cccc(-c2cccc3nc(Nc4ccc(OCCN5CCCC5)cc4)nn23)c1` [XX-229]: under setting [2], the pIC50 was 5.00 to 6.00. Turning to `COc1ccc(-c2cccc3nc(NC(=O)C4CC4)nn23)cc1F` [WW-067], the pIC50 runs as follows: under setting [1], 5.00 to 6.00; under setting [2], 5.00 to 6.00.

On to `Cc1cc(C(=O)Nc2ccc(-c3cccc4nc(Nc5ccc(OCCN6CCCC6)cc5)nn34)cc2)on1` [XX-251], for which the negative logarithm of the IC50 (pIC50) under setting [2] was 6.00 to 7.00. Same read-out and setting: next, `CCN(CC)CCOc1cc(Nc2nc3cccc(-c4ccc5c(c4)OCCO5)n3n2)ccn1` [XX-163]: at least 7.00; `CC(=O)Nc1ccc(S(=O)(=O)Nc2ccc(-c3cccc4nc(Nc5ccc(OCCN6CCCC6)cc5)nn34)cc2)cc1` [XX-277]: 5.00 to 6.00; `Fc1ccc(-c2cccc(-c3cccc4nc(Nc5ccc(OCCN6CCCC6)cc5)nn34)c2)cc1` [XX-467]: 5.00 to 6.00. The same measure, in the same setting: the value for `CC(=O)Nc1ccc(S(=O)(=O)n2cc(-c3cccc4nc(Nc5ccc(OCCN6CCCC6)cc5)nn34)cn2)cc1` [XX-376] was 6.00 to 7.00. In the case of `O=C(Nc1nc2cccc(-c3ccc4c(c3)OCCO4)n2n1)C1CC1` [WW-102], the pIC50 is above 6.00 under setting [1] and 6.00 to 7.00 under setting [2]. Under setting [2], `O=S(=O)(CCC(F)(F)F)n1cc(-c2cccc3nc(Nc4ccc(OCCN5CCCC5)cc4)nn23)cn1` [XX-382] showed a negative-log IC50 (pIC50) of at least 7.00. On the same count and under the same terms, the value for `c1ccc(-c2cccc3nc(Nc4ccc(OCCN5CCCC5)cc4)nn23)cc1` [XX-159] was 6.00 to 7.00; that for `CCCCCS(=O)(=O)n1cc(-c2cccc3nc(Nc4ccc(OCCN5CCCC5)cc4)nn23)cn1` [XX-384] was 6.00 to 7.00.
